Tested on: cortical organoids
Assay: Pharmacological perturbation of network activity in cortical organoids, multi-electrode array (MEA) recordings
Assay type: cell-based, human

SMILES | number of bursts / burst activity | synchronous activity / synchrony indexes | neuronal electrical activity | network bursts (synchrony) | number of network events
NC(CCCP(=O)(O)O)C(=O)O (stereo not drawn) [AP5] | significantly reducing the number of bursts | extinction of synchronous activity | – | – | –
N#Cc1cc2[nH]c(=O)c(=O)[nH]c2cc1[N+](=O)[O-] [CNQX] | significantly reducing the number of bursts | extinction of synchronous activity | – | – | –
NC1=N[C@H](O)[C@H]2[C@H]3O[C@]4(O)O[C@@H]([C@@H](O)[C@@]2(N1)[C@@H]4O)[C@]3(O)CO [TTX, tetrodotoxin] | – | – | blocked | – | –
NCC(CC(=O)O)c1ccc(Cl)cc1 (stereo not drawn) [baclofen] | significantly reducing the number of bursts | extinction of synchronous activity | – | reversibly extinguish the network bursts (synchrony) | completely abolishes synchronized network events
NCc1cc(=O)[nH]o1 [muscimol] | significantly reducing the number of bursts | extinction of synchronous activity | – | reversibly extinguish the network bursts (synchrony) | –

Reference: patent publication US11821895B2, “Functional cortical organoids, methods of making, and uses thereof” (priority 2017, dated 2023)
